# Experimental data published in ChEMBL document CHEMBL2385058, “Progress and developments in tau aggregation inhibitors for Alzheimer disease” (J Med Chem, 2013).
# Key:
# [1] = target: T1, Microtubule-associated protein tau (Homo sapiens, UniProt P10636); assay: Inhibition of tau protein aggregation (unknown origin) at 5:1 compound to protein concentration by Western blot analysis
# Homo sapiens [2] = organism: Homo sapiens; assay: Induction of tau K19 (unknown origin) disaggregation assessed as decrease in paired helical filament formation measured disassembly-inducing half maxima after 10 days by thioflavin S fluorescence assay in presence of heparin
# [3] = Inhibition of tau K19 (unknown origin) aggregation assessed as inhibition of paired helical filament formation after 10 days by thioflavin S fluorescence assay in presence of heparin; parameters: species or system Homo sapiens
# [4] = Inhibition of K18 P301L mutant (unknown origin) fibril formation after 1 hr by thioflavin T fluorescence assay; parameters: species or system Homo sapiens
# [5] = Inhibition of tau K19 aggregation (unknown origin); parameters: species or system Homo sapiens
# [6] = Binding affinity to tau K19 (unknown origin) assessed as dissociation constant by STD-NMR analysis; parameters: species or system Homo sapiens
# Homo sapiens [7] = organism: Homo sapiens; assay: Induction of tau K19 (unknown origin) disaggregation assessed as disassembly-inducing half maxima
# [8] = Tmax in amyotrophic lateral sclerosis patient; settings: human, in vivo
# [9] = target: T1, Microtubule-associated protein tau; assay: Inhibition of human recombinant brain tau protein (412 amino acid residues) filament assembly expressed in Escherichia coli BL21(DE3) by electron microscopic analysis in presence of heparin
# [10] = Inhibition of tau K18 aggregation in mouse N2A cells; type: cell-based
# N2a [11] = assay: Inhibition of tau K18 deltaK280 mutant aggregation in mouse N2A cells at 10 uM measured over 5 days by thioflavin S fluorescence assay relative to control; type: cell-based
# [12] = target: T1, Microtubule-associated protein tau; assay: Inhibition of tau protein aggregation (unknown origin)
# [13] = Inhibition of […] human tau K18 aggregation
# [14] = Inhibition of tau K19 protein (unknown origin) aggregation by thioflavin S fluorescence assay; parameters: species or system Homo sapiens
# Homo sapiens [15] = organism: Homo sapiens; assay: Induction of tau K19 (unknown origin) disaggregation assessed as decrease in paired helical filament formation measured disassembly-inducing half maxima by thioflavin S fluorescence assay
# [16] = Oral bioavailability in diabetic neuropathy patient at 150 mg/day; type: ADME, organism-based; settings: human, in vivo
# N2a [17] = assay: Cytotoxicity against mouse N2A cells at 10 uM after 24 hrs by LDH assay relative to control; type: cell-based
# [18] = target: Amyloid-beta precursor protein (Homo sapiens, UniProt P05067); assay: Inhibition of amyloid beta (1 to 40) (unknown origin) fibril formation after 18 hrs by DELFIA
# Sequence of Amyloid-beta precursor protein (P05067 whole entry): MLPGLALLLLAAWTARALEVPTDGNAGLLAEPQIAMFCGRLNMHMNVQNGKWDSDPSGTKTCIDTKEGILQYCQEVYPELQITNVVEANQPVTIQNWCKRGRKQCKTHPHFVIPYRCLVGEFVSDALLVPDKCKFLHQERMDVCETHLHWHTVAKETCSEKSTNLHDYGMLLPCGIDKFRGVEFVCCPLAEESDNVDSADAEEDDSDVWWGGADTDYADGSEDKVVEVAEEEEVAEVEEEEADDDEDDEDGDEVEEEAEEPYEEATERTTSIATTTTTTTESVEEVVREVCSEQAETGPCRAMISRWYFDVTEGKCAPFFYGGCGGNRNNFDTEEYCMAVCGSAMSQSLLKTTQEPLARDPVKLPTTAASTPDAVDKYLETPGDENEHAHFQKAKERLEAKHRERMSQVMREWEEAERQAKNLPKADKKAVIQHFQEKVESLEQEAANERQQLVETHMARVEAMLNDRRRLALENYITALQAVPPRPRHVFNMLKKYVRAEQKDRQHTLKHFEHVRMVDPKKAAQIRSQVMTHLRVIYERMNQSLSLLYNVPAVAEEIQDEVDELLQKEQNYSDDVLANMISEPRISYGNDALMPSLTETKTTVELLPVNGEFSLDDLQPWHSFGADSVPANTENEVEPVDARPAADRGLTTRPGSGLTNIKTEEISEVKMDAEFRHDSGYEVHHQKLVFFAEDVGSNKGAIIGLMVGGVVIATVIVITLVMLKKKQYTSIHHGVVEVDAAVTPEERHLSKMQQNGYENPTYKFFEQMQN
# [19] = target: T1, Microtubule-associated protein tau; assay: Induction of tau protein (unknown origin) disaggregation assessed as disassembly-inducing half maxima
# [20] = Inhibition of full length human tau40 aggregation
# Homo sapiens [21] = organism: Homo sapiens; assay: Selectivity ratio of IC50 for full length human tau40 aggregation to IC50 for tau K19 aggregation (unknown origin)
# [22] = Terminal half life in rat at 100 mg, iv; type: ADME, organism-based; settings: in vivo, read-out: beta t1/2 (converted)
# T1 sequence (P10636 whole entry): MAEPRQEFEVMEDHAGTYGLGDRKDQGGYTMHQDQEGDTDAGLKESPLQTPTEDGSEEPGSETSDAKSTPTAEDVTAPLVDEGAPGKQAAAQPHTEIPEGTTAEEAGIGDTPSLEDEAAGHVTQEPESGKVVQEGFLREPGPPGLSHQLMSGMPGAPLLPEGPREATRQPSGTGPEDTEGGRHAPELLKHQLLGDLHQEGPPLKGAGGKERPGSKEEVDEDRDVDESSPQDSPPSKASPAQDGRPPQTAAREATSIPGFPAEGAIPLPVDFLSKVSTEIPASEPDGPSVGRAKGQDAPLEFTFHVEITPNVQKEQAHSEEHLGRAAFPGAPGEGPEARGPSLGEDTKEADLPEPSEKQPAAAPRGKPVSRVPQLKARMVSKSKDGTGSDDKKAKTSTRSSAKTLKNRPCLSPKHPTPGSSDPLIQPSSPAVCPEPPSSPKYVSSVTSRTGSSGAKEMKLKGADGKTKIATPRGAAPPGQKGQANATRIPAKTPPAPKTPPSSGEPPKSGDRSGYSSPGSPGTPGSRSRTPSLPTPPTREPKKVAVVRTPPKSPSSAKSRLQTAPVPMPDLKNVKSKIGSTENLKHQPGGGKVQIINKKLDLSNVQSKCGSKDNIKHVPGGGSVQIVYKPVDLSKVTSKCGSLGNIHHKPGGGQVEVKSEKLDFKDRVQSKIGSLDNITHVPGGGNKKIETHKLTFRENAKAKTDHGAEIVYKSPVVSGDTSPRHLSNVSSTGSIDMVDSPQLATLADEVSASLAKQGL
compound,measurement,setting,value
Cc1cc2nc3ccc(N(C)C)cc3[s+]c2cc1N [TOLONIUM CHLORIDE],IC50,[1],69 nM
Nc1ccc2nc3ccc(N)cc3[s+]c2c1,IC50,[1],69 nM
COc1cccc2c1C(=O)c1c(O)c3c(c(O)c1C2=O)C[C@@](O)(C(C)=O)C[C@@H]3O[C@H]1C[C@H](N)[C@H](O)[C@H](C)O1 [DAUNORUBICIN],Activity,Homo sapiens [2],2.2 µM
same,IC50,[3],1100 nM
Cc1cc(O)c2c(c1)C(=O)c1cc(O)cc(O)c1C2=O [EMODIN],Activity,Homo sapiens [2],2.2 µM
same,IC50,[3],1100 nM
CCOC(=O)c1nn(-c2ccccc2)c(=O)c2c(N)scc12,IC50,[4],6300 nM
O=C(NNc1nc(-c2ccc([N+](=O)[O-])cc2)cs1)c1ccc2[nH]cnc2c1,IC50,[5],1600 nM
same,Kd,[6],62000 nM
same,Activity,Homo sapiens [7],0.7 µM
Nc1nc2ccc(OC(F)(F)F)cc2s1 [RILUZOLE],Tmax,[8],2 h
CN(C)c1ccc2nc3ccc(N)cc3[s+]c2c1,IC50,[1],69 nM
same,IC50,[9],2600 nM
Oc1cc(O)c2c(c1)O[C@H](c1ccc(O)c(O)c1)[C@H](O)C2 [(-)-EPICATECHIN],IC50,[9],≥ 200000 nM
O=C(O)COc1ccc(Nc2c([N+](=O)[O-])cc([N+](=O)[O-])c3cccnc23)cc1,IC50,[10],< 15000 nM
Cc1nc(Nc2ccccc2C(=O)O)nc(Nc2ccccc2C(=O)O)c1[N+](=O)[O-],IC50,[10],< 10000 nM
same,inhibition,N2a [11],70%
O=C(c1ccccc1)c1ccc(O)c(O)c1O,Activity,Homo sapiens [2],2.2 µM
same,IC50,[3],1100 nM
CCC(/C=C1\Sc2ccc(OC)cc2N1CCO)=C\c1sc2ccc(OC)cc2[n+]1CCO,IC50,[12],380 nM
same,IC50,[13],300 nM
O=C(O)CCN1C(=O)/C(=C/c2ccc(-c3cccc(Cl)c3)o2)SC1=S,IC50,[14],470 nM
same,Activity,Homo sapiens [15],0.3 µM
O=C(O)CCN1C(=O)/C(=C/c2ccc(-c3cccc(Cl)c3)s2)SC1=S,IC50,[14],970 nM
same,Activity,Homo sapiens [15],0.77 µM
CC(/C=C1\SC(=S)N(CC(=O)O)C1=O)=C\c1ccccc1,bioavailability,[16],100%
O=C1/C(=C/c2ccc(-c3cccc(Cl)c3)o2)SC(=S)N1Cc1nc2ccccc2[nH]1,IC50,[14],670 nM
same,Activity,Homo sapiens [15],0.94 µM
same,Activity,N2a [17],2%
C1=C2\Sc3ccccc3N2CCCCC[n+]2c(sc3ccccc32)/C=C/C=C2\Sc3ccccc3N2CCCCC[n+]2c(sc3ccccc32)/C=C/1,IC50,[12],80 nM
COc1ccccc1OCCNCC(O)COc1cccc2[nH]c3ccccc3c12 (configuration not stated) [CARVEDILOL],IC50,[18],30000 nM
O=C1c2ccc(O)c(O)c2C(=O)c2c(O)ccc(O)c21 [QUINALIZARIN],Activity,Homo sapiens [2],2.2 µM
same,IC50,[3],1100 nM
CCOC(=O)c1nn(-c2ccc(OC)cc2)c(=O)c2c(N)scc12,IC50,[4],5100 nM
COc1cccc2c1C(=O)c1c(O)c3c(c(O)c1C2=O)C[C@@](O)(C(=O)CO)C[C@@H]3O[C@H]1C[C@H](N)[C@H](O)[C@H](C)O1,Activity,Homo sapiens [2],2.2 µM
Cc1ccc(C(=O)N/N=C/c2ccc(O)c(O)c2O)cc1,IC50,[12],970 nM
same,Activity,[19],1.1 µM
O=C(O[C@@H]1Cc2c(O)cc(O)cc2O[C@@H]1c1cc(O)c(O)c(O)c1)c1cc(O)c(O)c(O)c1 [EPIGALOCATECHIN GALLATE],IC50,[9],1800 nM
same,IC50,[5],3900 nM
same,IC50,[20],> 200000 nM
same,Ratio IC50,Homo sapiens [21],> 50
CN(C)c1ccc2nc3ccc(N(C)C)cc3[s+]c2c1.[Cl-] [METHYLENE BLUE ANHYDROUS],half-life,[22],5 h
